Patent US5288709A, “Erythromycin derivatives” (priority 1991, dated 1994)
Converted amounts (≈) assume the structure as drawn. Where two headings read alike, the source gives them in different places.

Columns and labels:
[1] = test system: Acinetobacter SP CMX 669; assay: In-vitro antimicrobial activity primary screen (agar dilution MIC); type: cell-based; settings: Acinetobacter, SPCMX669, 24 h
Procedure, shortened: (§1)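 Steps: prepare 12 BHI agar plates with serial aqueous dilutions; inoculate with 1:100 dilutions (1:10 for Streptococcus and other slow growers); incubate 35-37° C, 20-24 h; score MIC as lowest concentration with no growth, slight haze or isolated colonies.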

[2] = test system: Enterobacter aerogenes ATCC 13048; assay: as above; type: cell-based; settings: Klebsiella aerogenes, ATCC13048; Enterobacter aerogenes ATCC 13048; BHI agar, 20-24 h; read-out: MIC
Procedure, shortened: as §1

[3] = test system: Enterococcus faecium ATCC 8043; assay: as above; type: cell-based; settings: Enterococcus faecium, ATCC8043, 24 h
Procedure, shortened: as §1

[4] = test system: Escherichia coli DC-2; assay: as above; type: cell-based; settings: DC2; Escherichia coli DC-2; BHI agar, 20-24 h; read-out: MIC
Procedure, shortened: as §1

[5] = test system: Escherichia coli H560; assay: as above; type: cell-based; settings: Escherichia coli H560; BHI agar, 20-24 h; read-out: MIC
Procedure, shortened: as §1

[6] = test system: Escherichia coli SS; assay: as above; type: cell-based; settings: BHI agar, 20-24 h
Procedure, shortened: as §1

[7] = test system: Klebsiella pneumoniae ATCC 8045; assay: as above; type: cell-based; settings: Klebsiella pneumoniae ATCC 8045, BHI agar, 20-24 h
Procedure, shortened: as §1

[8] = test system: Micrococcus luteus ATCC 4698; assay: as above; type: cell-based; settings: Micrococcus luteus, ATCC4698, 24 h, BHI agar, 20-24 h
Procedure, shortened: as §1

[9] = test system: Micrococcus luteus ATCC 9341; assay: as above; type: cell-based; settings: 20-24 h
Procedure, shortened: as §1

[10] = test system: Providencia stuartii CMX 640; assay: as above; type: cell-based; settings: CMX640; Providencia stuartii CMX 640; BHI agar, 20-24 h; read-out: MIC
Procedure, shortened: as §1

[11] = test system: Pseudomonas aeruginosa A5007; assay: as above; type: cell-based; settings: Pseudomonas aeruginosa A5007; BHI agar, 20-24 h; read-out: MIC
Procedure, shortened: as §1

[12] = test system: Pseudomonas aeruginosa BMH10; assay: as above; type: cell-based; settings: BHI agar, 20-24 h, read-out: MIC
Procedure, shortened: as §1

[13] = test system: Pseudomonas aeruginosa K799/61; assay: as above; type: cell-based; settings: Pseudomonas aeruginosa K799/61, BHI agar, 20-24 h
Procedure, shortened: as §1

[14] = test system: Pseudomonas aeruginosa K799/WT; assay: as above; type: cell-based; settings: Pseudomonas aeruginosa K799/WT; BHI agar, 20-24 h; read-out: MIC
Procedure, shortened: as §1

[15] = test system: Pseudomonas cepacia 2961; assay: as above; type: cell-based; settings: Burkholderia cepacia, BHI agar, 20-24 h, read-out: MIC
Procedure, shortened: as §1

[16] = test system: Staphylococcus aureus 45 RAR2; assay: as above; type: cell-based; settings: Staphylococcus aureus, 45RAR2, 24 h, BHI agar, 20-24 h
Procedure, shortened: as §1

[17] = test system: Staphylococcus aureus 45; assay: as above; type: cell-based; settings: BHI agar, 20-24 h, read-out: MIC
Procedure, shortened: as §1

[18] = test system: Staphylococcus aureus A5177; assay: as above; type: cell-based; settings: Staphylococcus aureus A5177, BHI agar, 20-24 h
Procedure, shortened: as §1

[19] = test system: Staphylococcus aureus ATCC 6538P; assay: as above; type: cell-based; settings: Staphylococcus aureus, ATCC6538P, 24 h, BHI agar, 20-24 h
Procedure, shortened: as §1

[20] = test system: Staphylococcus epidermidis 3519; assay: as above; type: cell-based; settings: BHI agar, 20-24 h, read-out: MIC
Procedure, shortened: as §1

[21] = test system: Streptococcus agalactiae CMX 508; assay: as above; type: cell-based; settings: 20-24 h
Procedure, shortened: as §1

[22] = test system: Streptococcus bovis A5169; assay: as above; type: cell-based; settings: Streptococcus equinus, BHI agar, 20-24 h, read-out: MIC
Procedure, shortened: as §1

[23] = test system: Streptococcus pyrogenes 2548 INDUC; assay: as above; type: cell-based; settings: BHI agar, 20-24 h
Procedure, shortened: as §1

[24] = test system: Streptococcus pyrogenes EES61; assay: as above; type: cell-based; settings: BHI agar, 20-24 h
Procedure, shortened: as §1

[25] = test system: Streptococcus pyogenes C-203; assay: In-vivo acute mouse protection assay; parameters: species or system Streptococcus pyogenes; female Swiss albino mice; settings: dosed 1 and 5 h post-infection, observed 7 days
Method: (§2) An acute mouse protection test was conducted on ten mice with each of three concentrations of selected compounds of the invention. Each concentration was a four-fold dilution of the previous concentration. The initial concentration will vary with the microorganism with which the mouse is challenged.
(§3) The acute mouse protection test was conducted on female, Swiss albino mice, 18-20 grams in weight. […] To check the potency of the inoculum, a titration of the indicated test organism was carried out in control animals. The titration determines the LD50 for a particular microorganism. The treatment groups of animals were dosed orally, by gavage, or subcutaneously with the test compounds at 1 and 5 hours post-infection and observed for 7 days. The ED50 were calculated using the mortality data collected.

[26] = test system: Streptococcus pneumoniae (ATCC 6303); assay: In-vivo acute mouse protection assay; parameters: species or system Streptococcus pneumoniae; female Swiss albino mice; settings: dosed 1 and 5 h post-infection, observed 7 days, read-out: ED50
Method: as §2, §3

[27] = Pharmacokinetic evaluation in dogs after a 10 mg/kg dose; settings: dog, plasma; for half-life: t1/2 (biological half life); for bioavailability: % ABS (percent absorbance), from AUC (absolute bioavailability); for Cmax: Cmax (maximum concentration in blood); for Tmax: Tmax (time to achieve maximum concentration in blood)
[28] = ATCC6303, sc, 168 h, subcutaneous
[29] = iv, IV 10 mg/kg, HPLC (parent drug)
[30] = iv, IV 10 mg/kg, microbiological assay
[31] = po, oral 10 mg/kg, HPLC (parent drug)
[32] = po, oral 10 mg/kg, microbiological assay

| Compound | MIC [2] [µg/mL] | MIC [3] [µg/mL] | MIC [4] [µg/mL] | MIC [5] [µg/mL] | MIC [8] [µg/mL] | MIC [10] [µg/mL] | MIC [11] [µg/mL] | MIC [12] [µg/mL] | MIC [14] [µg/mL] | MIC [15] [µg/mL] | MIC [16] [µg/mL] | MIC [17] [µg/mL] | MIC [19] [µg/mL] | MIC [20] [µg/mL] | MIC [22] [µg/mL] | ED50 ([25]; C203, 168 h, oral) [mg/kg] | ED50 ([25]; C203, sc, 168 h, subcutaneous) [mg/kg] | ED50 ([26]; ATCC6303, 168 h, oral) [mg/kg] | ED50 [26, 28] [mg/kg] | half-life [27, 29] [h] | also measured |
| --- | --- | --- | --- | --- | --- | --- | --- | --- | --- | --- | --- | --- | --- | --- | --- | --- | --- | --- | --- | --- | --- |
| CC[C@H]1OC(=O)[C@H](C)[C@@H](O[C@H]2C[C@@](C)(OC)[C@@H](O)[C@H](C)O2)[C@H](C)[C@@H](O[C@@H]2O[C@H](C)C[C@H](N(C)C)[C@H]2O)[C@](C)(O)C[C@@H](C)[C@@H]2O[C@@]1(C)C(=O)[C@H]2C [Example 5, (9S)-9-Deoxo-11,12-dideoxy-9,12-epoxy-11-oxoerythromycin A] | > 100 | 0.1 (≈ 0.14 µM) | > 100 | 100 (≈ 140 µM) | 0.1 (≈ 0.14 µM) | > 100 | > 100 | 100 (≈ 140 µM) | 100 (≈ 140 µM) | 100 (≈ 140 µM) | 0.2 (≈ 0.279 µM) | 0.1 (≈ 0.14 µM) | 0.39 (≈ 0.545 µM) | 0.2 (≈ 0.279 µM) | 0.1 (≈ 0.14 µM) | 3.9 | 1.7 | 23.7 | < 0.4 | 12.2 | MIC ([1]; Acinetobacter SP CMX 669, BHI agar, 20-24 h): 12.5 µg/mL (≈ 17.5 µM); MIC ([6]; Escherichia coli, 24 h): 0.2 µg/mL (≈ 0.279 µM); MIC ([7]; ATCC8045, read-out: MIC): > 100 µg/mL; MIC ([9]; Micrococcus luteus, ATCC9341, 24 h, BHI agar): < 0.05 µg/mL; MIC ([13]; Pseudomonas aeruginosa, K799/61, 24 h): 1.56 µg/mL (≈ 2.18 µM); MIC ([18]; Staphylococcus aureus, A5177, 24 h): 3.1 µg/mL (≈ 4.33 µM); MIC ([21]; Streptococcus agalactiae, CMX508, 24 h, BHI agar): 0.1 µg/mL (≈ 0.14 µM); MIC ([23]; read-out: MIC): 1.56 µg/mL (≈ 2.18 µM); MIC ([24]; Streptococcus, EES61, 24 h): < 0.05 µg/mL; half-life [27, 30]: 14.7 h; bioavailability [27, 31]: 81%; bioavailability [27, 32]: 76%; Cmax [27, 31]: 2500 ng/mL; Cmax [27, 32]: 2500 ng/mL; Tmax [27, 31]: 4 h; half-life [27, 31]: 10.2 h; half-life [27, 32]: 10.5 h |
| CC[C@H]1OC(=O)[C@H](C)[C@@H](O[C@H]2C[C@@](C)(OC)[C@@H](O)[C@H](C)O2)[C@H](C)[C@@H](O[C@@H]2O[C@H](C)C[C@H](N(C)C)[C@H]2O)[C@](C)(O)C[C@@H](C)[C@@H]2O[C@@]1(C)[C@@H](N)[C@H]2C [Example 19, (9S,11S)-11-Amino-9-deoxo-11,12-deoxy-9,12-epoxyerythromycin A] | 100 (≈ 139 µM) | 0.05 (≈ 0.0697 µM) | 50 (≈ 69.7 µM) | 6.2 (≈ 8.65 µM) | 0.1 (≈ 0.139 µM) | > 100 | > 100 | 50 (≈ 69.7 µM) | 100 (≈ 139 µM) | > 100 | 0.39 (≈ 0.544 µM) | 0.2 (≈ 0.279 µM) | 0.2 (≈ 0.279 µM) | 0.2 (≈ 0.279 µM) | 0.1 (≈ 0.139 µM) | 28.9 | 2.5 | < 9.4 | 1.1 | 7.5 | MIC [1]: 1.56 µg/mL (≈ 2.18 µM); MIC ([6]; read-out: MIC): 0.78 µg/mL (≈ 1.09 µM); MIC ([7]; Klebsiella pneumoniae, ATCC8045, 24 h): 25 µg/mL (≈ 34.9 µM); MIC ([9]; ATCC9341, BHI agar, read-out: MIC): 0.01 µg/mL (≈ 0.0139 µM); MIC ([13]; read-out: MIC): 0.78 µg/mL (≈ 1.09 µM); MIC ([18]; read-out: MIC): 0.39 µg/mL (≈ 0.544 µM); MIC ([21]; CMX508, BHI agar, read-out: MIC): 0.02 µg/mL (≈ 0.0279 µM); MIC ([23]; Streptococcus, 2548INDUC, 24 h): 3.1 µg/mL (≈ 4.32 µM); MIC ([24]; read-out: MIC): < 0.005 µg/mL; half-life [27, 30]: 6.6 h; bioavailability [27, 31]: 59%; bioavailability [27, 32]: 67%; Cmax [27, 31]: 3200 ng/mL; Cmax [27, 32]: 3300 ng/mL; Tmax [27, 31]: 0.25 h; Tmax [27, 32]: 0.4 h; half-life [27, 31]: 8.1 h; half-life [27, 32]: 5.8 h |
